Data set [1] concerns the target T1, human recombinant GIP receptor (Homo sapiens, UniProt P48546).
T1 construct: expressed in transfected cells; host or cells: CHO-K1 clonal cells (membranes)
T1 sequence (P48546 22-466): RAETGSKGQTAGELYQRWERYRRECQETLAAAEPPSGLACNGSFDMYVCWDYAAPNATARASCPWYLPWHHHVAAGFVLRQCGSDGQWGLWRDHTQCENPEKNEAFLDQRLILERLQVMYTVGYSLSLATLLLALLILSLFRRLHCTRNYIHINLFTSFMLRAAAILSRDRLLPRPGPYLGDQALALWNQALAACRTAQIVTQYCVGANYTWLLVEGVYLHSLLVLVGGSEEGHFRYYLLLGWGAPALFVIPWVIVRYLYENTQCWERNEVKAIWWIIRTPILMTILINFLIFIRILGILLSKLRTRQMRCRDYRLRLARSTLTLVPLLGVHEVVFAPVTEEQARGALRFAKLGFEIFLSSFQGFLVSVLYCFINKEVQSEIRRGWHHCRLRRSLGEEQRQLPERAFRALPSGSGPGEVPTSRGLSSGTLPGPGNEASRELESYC
In words: In vitro hGIP receptor binding assay ([125I]GIP displacement, CHO-K1 membranes). The source says:
A. In Vitro hGIP Receptor Binding Assay

Data set [2] in a line: Rat plasma half-life assay. Conditions: rat plasma, 37° C., LC-MS; for half-life at 0.1 mg/ml: read-out: Rat Plasma T½ (converted). It is filed as in vitro ADME.
A short description of data set [3]: Human plasma half-life assay. It is filed as in vitro ADME. The following applies: human plasma, 37° C., LC-MS; for half-life at 0.1 mg/ml: read-out: Human Plasma T½ (converted).

Where a SMILES comes first, the peptide text is derived from it. Where no end group is shown, it is not given here. [ ]: non-standard residue; d: D form. ΔPro = O=C(O)[C@@H]1C=CCN1; Ac6c = NC1(C(=O)O)CCCCC1; Nle = CCCC[C@H](N)C(=O)O; Ac5c = NC1(C(=O)O)CCCC1; Aib = CC(C)(N)C(=O)O

These results are taken from patent US9074014B2 (Ipsen Pharma S.A.S., priority 2008, dated 2015).

The term Ki denotes the equilibrium dissociation constant of an inhibitor or competing ligand from its target.

Regarding `CC[C@H](C)[C@H](NC(=O)[C@H](CCCCN)NC(=O)[C@H](CC(=O)O)NC(=O)[C@H](CCSC)NC(=O)[C@H](C)NC(=O)[C@@H](NC(=O)C1(NC(=O)[C@H](Cc2ccc(O)cc2)NC(=O)[C@H](CC(=O)O)NC(=O)[C@H](CO)NC(=O)[C@@H](NC(=O)[C@H](Cc2ccccc2)NC(=O)[C@@H](NC(=O)CNC(=O)[C@H](CCC(=O)O)NC(=O)[C@@H](C)NC(=O)[C@@H](N)Cc2ccc(O)cc2)[C@@H](C)O)[C@@H](C)CC)CCCC1)[C@@H](C)CC)C(=O)N[C@@H](Cc1c[nH]cn1)C(=O)N[C@@H](CCC(N)=O)C(=O)N[C@@H](CCC(N)=O)C(=O)N[C@@H](CC(=O)O)C(=O)N[C@@H](Cc1ccccc1)C(=O)N[C@H](C(=O)N[C@@H](CC(N)=O)C(=O)N[C@@H](Cc1c[nH]c2ccccc12)C(=O)N[C@@H](CC(C)C)C(=O)N[C@@H](CC(C)C)C(=O)N[C@@H](C)C(=O)N[C@@H](CCC(N)=O)C(=O)N[C@@H](CCCCN)C(=O)N[C@@H](Cc1c[nH]cn1)C(N)=O)C(C)C` [Example 122, (D-Ala^2, A5c^11, His^31)hGIP(1-31)-NH2] (H-Y[dA]EGTFISDY[Ac5c]IAMDKIHQQDFVNWLLAQKH-NH2; N-terminus assumed), in data set [1], the Ki is 870 pM.
In the case of “Y[Aib]EGTF[Ac6c]SDYSIAMDKIHQQDFVNWLLAQKGKKNDWKHNITQ-OH [Example 43, (Aib^2, A6c^7)hGIP(1-42)-OH]”, the figures for the half-life at 0.1 mg/ml in data set [2] and in data set [3] were 7.7 h and 8.8 h, respectively. Moreover, in data set [1], the Ki is 300 pM.
Consider “Y[Aib]EGTFISDY[Aib]IA[Ac6c]DKIHQQDFVNWLLAQKGKKNDWKHNITQ-OH [Example 41, (Aib^2, 11, A6c^14)hGIP(1-42)-OH]”, for which the results for the half-life at 0.1 mg/ml in data set [2] and in data set [3] were 13.3 h and 15.9 h, respectively. In addition, in data set [1], the Ki is 730 pM.
For the compound `CCCC[C@H](NC(=O)C(C)(C)NC(=O)[C@@H](NC(=O)[C@H](CO)NC(=O)[C@H](Cc1ccc(O)cc1)NC(=O)[C@H](CC(=O)O)NC(=O)[C@H](CO)NC(=O)[C@@H](NC(=O)[C@H](Cc1ccccc1)NC(=O)[C@@H](NC(=O)CNC(=O)[C@@H]1CCCN1C(=O)C(C)(C)NC(=O)[C@@H](N)Cc1ccc(O)cc1)[C@@H](C)O)[C@@H](C)CC)[C@@H](C)CC)C(=O)N[C@@H](CC(=O)O)C(=O)N[C@@H](CCCCN)C(=O)N[C@H](C(=O)N[C@@H](Cc1c[nH]cn1)C(=O)N[C@@H](CCC(N)=O)C(=O)N[C@@H](CCC(N)=O)C(=O)N[C@@H](CC(=O)O)C(=O)N[C@@H](Cc1ccccc1)C(=O)N[C@H](C(=O)N[C@@H](CC(N)=O)C(=O)N[C@@H](Cc1c[nH]c2ccccc12)C(=O)N[C@@H](CC(C)C)C(=O)N[C@@H](CC(C)C)C(=O)N[C@@H](C)C(=O)N[C@@H](CCC(N)=O)C(=O)N[C@@H](CCCCN)C(N)=O)C(C)C)[C@@H](C)CC` [Example 108, (Aib^2, 13, Pro^3, Nle^14)hGIP(1-30)-NH2] (H-Y[Aib]PGTFISDYSI[Aib][Nle]DKIHQQDFVNWLLAQK-NH2; N-terminus assumed), the half-life at 0.1 mg/ml in data set [2] was 45.6 h; in data set [3], 46.2 h. For the same compound, the Ki in data set [1] came out at 70 pM.
For “Y[Aib]EGTFISDYSIA[Ac6c]DKIHQQDFVNWLLAQKGKKNDWKHNITQ-OH [Example 42, (Aib^2, A6c^14)hGIP(1-42)-OH]”, in that order: 6.2 h, 10.6 h and 70 pM.
On to `CC[C@H](C)[C@H](NC(=O)[C@H](CCCCN)NC(=O)[C@H](CC(=O)O)NC(=O)[C@H](CCSC)NC(=O)[C@H](C)NC(=O)[C@@H](NC(=O)C1(NC(=O)[C@H](Cc2ccc(O)cc2)NC(=O)[C@H](CC(=O)O)NC(=O)[C@H](CO)NC(=O)[C@@H](NC(=O)[C@H](Cc2ccccc2)NC(=O)[C@@H](NC(=O)CNC(=O)[C@@H]2CCCN2C(=O)[C@H](C)NC(=O)[C@@H](N)Cc2ccc(O)cc2)[C@@H](C)O)[C@@H](C)CC)CCCC1)[C@@H](C)CC)C(=O)N[C@@H](Cc1c[nH]cn1)C(=O)N[C@@H](CCC(N)=O)C(=O)N[C@@H](CCC(N)=O)C(=O)N[C@@H](CC(=O)O)C(=O)N[C@@H](Cc1ccccc1)C(=O)N[C@H](C(=O)N[C@@H](CC(N)=O)C(=O)N[C@@H](Cc1c[nH]c2ccccc12)C(=O)N[C@@H](CC(C)C)C(=O)N[C@@H](CC(C)C)C(=O)N[C@@H](C)C(=O)N[C@@H](CCC(N)=O)C(=O)N[C@@H](CCCCN)C(N)=O)C(C)C` [Example 98, (Pro^3, A5c^11)hGIP(1-30)-NH2] (H-YAPGTFISDY[Ac5c]IAMDKIHQQDFVNWLLAQK-NH2; N-terminus assumed), for which the inhibitory constant (Ki) in data set [1] turned out to be 65900 pM.
With `CC[C@H](C)[C@H](NC(=O)[C@H](CCCCN)NC(=O)[C@H](CC(=O)O)NC(=O)C1(NC(=O)[C@H](C)NC(=O)[C@@H](NC(=O)C2(NC(=O)[C@H](Cc3ccc(O)cc3)NC(=O)[C@H](CC(=O)O)NC(=O)[C@H](CO)NC(=O)[C@@H](NC(=O)[C@H](Cc3ccccc3)NC(=O)[C@@H](NC(=O)CNC(=O)[C@@H]3CCCN3C(=O)C(C)(C)NC(=O)[C@@H](N)Cc3ccc(O)cc3)[C@@H](C)O)[C@@H](C)CC)CCCC2)[C@@H](C)CC)CCCCC1)C(=O)N[C@@H](Cc1c[nH]cn1)C(=O)N[C@@H](CCC(N)=O)C(=O)N[C@@H](CCC(N)=O)C(=O)N[C@@H](CC(=O)O)C(=O)N[C@@H](Cc1ccccc1)C(=O)N[C@H](C(=O)N[C@@H](CC(N)=O)C(=O)N[C@@H](Cc1c[nH]c2ccccc12)C(=O)N[C@@H](CC(C)C)C(=O)N[C@@H](CC(C)C)C(=O)N[C@@H](C)C(=O)N[C@@H](CCC(N)=O)C(=O)N[C@@H](CCCCN)C(N)=O)C(C)C` [Example 112, (Aib^2, Pro^3, A5c^11, A6c^14)hGIP(1-30)-NH2] (H-Y[Aib]PGTFISDY[Ac5c]IA[Ac6c]DKIHQQDFVNWLLAQK-NH2; N-terminus assumed), the half-life at 0.1 mg/ml in data set [2] was over 72 h; in data set [3], 59.7 h.
In the same order, the values of “Y[Aib]EGTFISDYS[Ac5c]AMDKIHQQDFVNWLLAQKGKKNDWKHNITQ-OH [Example 7, (Aib^2, A5c^12)hGIP(1-42)-OH]” are 5.3 h and 37.1 h.
For “Y[Aib]EGTFISDY[Aib]IA[Nle]DKIHQQDFVNWLLAQKGKKNDWKHNITQ-OH [Example 45, (Aib^2, 11, Nle^14)hGIP(1-42)-OH]”, in that order: 11.6 h and 18.2 h.
In the same order, the values of “Y[Aib]EGTFISDY[Ac5c]IAMDKIHQQDFVNWLLAQKGKKNDWKHNITQ-OH [Example 53, (Aib^2, A5c^11)hGIP(1-42)-OH]” are 51.7 h and 33.3 h.
In the case of “Y[Aib]EG[Ac5c]FISDYSIAMDKIHQQDFVNWLLAQKGKKNDWKHNITQ-OH [Example 5, (Aib^2, A5c^5)hGIP(1-42)-OH]”, the half-life at 0.1 mg/ml was 6.1 h in data set [2] and over 48 h in data set [3].
As to “YA[ΔPro]GTFISDYSI[Aib][Nle]DKIHQQDFVNWLLAQKGKKNDWKHNITQ-OH [Example 64, (Dhp^3, Aib^13, Nle^14)hGIP(1-42)-OH]”, in data set [2], the “Rat Plasma T½” value was 47.5 h. In data set [3], the “Human Plasma T½” value was found to be 41.3 h.
